The text below walks through data of the supplement of paper PMC6045584.

± gives the standard deviation of the averaged measurements.

Compound in test [1]: T1, NC1(c2ccc(-c3nc4ccn5c(=O)[nH]nc5c4cc3-c3ccccc3)cc2)CCC1 [MK2206]
As to the kind of experiment: area under dose-response curve of surviving fraction (unscaled, Aref=0) (surviving fraction x log10(nM)); higher = more resistant. Conditions: exposure time: 5 days; dose range 0.5-1000 nM. The gist of the method:
(§1)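 Three screens per tumour cell line were run in 384-well plates at eight inhibitor concentrations from 0.5 to 1000 nM over five days. Surviving fractions, from CellTiter-Glo luminescence normalised to DMSO-only wells, were fitted with 3-parameter logistic curves in the drc R package. The reported area under the curve is the unscaled activity area. It spans log10 dose, and Aref is 0.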

Compound in test [2]: Nc1ccn([C@@H]2O[C@H](CO)[C@@H](O)C2(F)F)c(=O)n1 [GEMCITABINE]
Described as above. Conditions: exposure time: 5 days; dose range 0.5-1000 nM. In short, it runs like this:
as §1

Compound in test [3]: T2, C#Cc1cccc(Nc2ncnc3cc(OCCOC)c(OCCOC)cc23)c1 [ERLOTINIB]
The test is described as above. Conditions: exposure time: 5 days; dose range 0.5-1000 nM. The gist of the method:
as §1

Compound in test [4]: T3, CO[C@H]1C[C@@H]2CC[C@@H](C)[C@@](O)(O2)C(=O)C(=O)N2CCCC[C@H]2C(=O)O[C@H]([C@H](C)C[C@@H]2CC[C@@H](OCCO)[C@H](OC)C2)CC(=O)[C@H](C)/C=C(\C)[C@@H](O)[C@@H](OC)C(=O)[C@H](C)C[C@H](C)/C=C/C=C/C=C/1C [EVEROLIMUS]
The test is described as above. Conditions: exposure time: 5 days; dose range 0.5-1000 nM. In short, it runs like this:
as §1

Compound in test [5]: T4, CN(Cc1cnc2nc(N)nc(N)c2n1)c1ccc(C(=O)N[C@@H](CCC(=O)O)C(=O)O)cc1 [METHOTREXATE]
The test is described as above. Conditions: exposure time: 5 days; dose range 0.5-1000 nM. The gist of the method: as §1

Compound in test [6]: T1, MK2206
Put plainly: surviving fraction relative to DMSO-only wells; higher = less growth inhibition. Conditions: exposure time: 5 days. In short, it runs like this:
(§2)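 Luminescence normalised to the median of DMSO-only wells defines surviving fraction, with viability read by CellTiter-Glo. Signal was recorded after 10 minutes at room temperature, once log-phase tumour cell lines seeded at 250–500 cells per well in 384-well plates had spent 24 hours settling and then five days under continuous exposure to inhibitors at 0.5, 1, 5, 10, 50, 100, 500 and 1000 nM.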

Compound in test [7]: T2, ERLOTINIB
The test is described as above. Conditions: exposure time: 5 days. In short, it runs like this:
as §2

Compound in test [8]: T3, EVEROLIMUS
The test is described as above. Conditions: exposure time: 5 days. The gist of the method:
as §2

Compound in test [9]: T4, METHOTREXATE
Described as above. Conditions: exposure time: 5 days. The gist of the method: as §2

Compound in test [10]: Cc1nc(Nc2n[nH]c3c2CN(C(=O)N[C@H](CN(C)C)c2ccccc2)C3(C)C)c2sccc2n1
As to the kind of experiment: area under dose-response curve of surviving fraction (unscaled, Aref=0) (surviving fraction x log10(nM)); higher = more resistant. Conditions: exposure time: 5 days; dose range 0.5-1000 nM. The gist of the method: as §1

Compound in test [11]: COc1cc([C@@H]2c3cc4c(cc3[C@@H](O[C@@H]3O[C@@H]5CO[C@@H](C)O[C@H]5[C@H](O)[C@H]3O)[C@H]3COC(=O)[C@H]23)OCO4)cc(OC)c1O [ETOPOSIDE]
The description is as above. Conditions: exposure time: 5 days; dose range 0.5-1000 nM. In short, it runs like this: as §1

Compound in test [12]: CCN(CC)CCNC(=O)c1c(C)[nH]c(/C=C2\C(=O)Nc3ccc(F)cc32)c1C [SUNITINIB]
Described as above. Conditions: exposure time: 5 days; dose range 0.5-1000 nM. In short, it runs like this: as §1

Compound in test [13]: CCCS(=O)(=O)Nc1ccc(F)c(C(=O)c2c[nH]c3ncc(Cl)cc23)c1F [PLX-4720]
The description is as above. Conditions: exposure time: 5 days; dose range 0.5-1000 nM. The gist of the method: as §1

Compound in test [14]: O=C(NOCC1CC1)c1ccc(F)c(F)c1Nc1ccc(I)cc1Cl
The description is as above. Conditions: exposure time: 5 days; dose range 0.5-1000 nM. The gist of the method:
as §1

Compound in test [15]: COc1cc(CCc2cc(NC(=O)c3ccc(N4CC(C)NC(C)C4)cc3)n[nH]2)cc(OC)c1 [AZD4547]
The description is as above. Conditions: exposure time: 5 days; dose range 0.5-1000 nM. The gist of the method:
as §1

Compound in test [16]: CCC1=C[C@@H]2CN(C1)Cc1c([nH]c3ccccc13)[C@@](C(=O)OC)(c1cc3c(cc1OC)N(C)[C@H]1[C@@](O)(C(=O)OC)[C@H](OC(C)=O)[C@]4(CC)C=CCN5CC[C@]31[C@@H]54)C2 [VINORELBINE]
The test is described as above. Conditions: exposure time: 5 days; dose range 0.5-1000 nM. The gist of the method:
as §1

In the case of CCK81 LARGE INTESTINE, the “area under dose-response curve” value in test [1] was 2.67; in test [2], 1.48; in [3] it was 2.36; in test [4], 2.28; in [5] it was 2.37. For the same test system, the surviving fraction in test [6] (0.5 nM) was found to be 0.868 ± 0.21; in test [6] (1 nM), 0.793 ± 0.089; in test [6] (5 nM), 0.751 ± 0.14; in [6] (10 nM) it was 0.809 ± 0.053; in test [6] (50 nM) it was 0.728 ± 0.075; in [6] (100 nM), 0.798 ± 0.098. The surviving fraction in test [6] (500 nM) came out at 0.944 ± 0.13; in test [6] (1000 nM) it was 0.806 ± 0.049; in test [7] (0.5 nM) it was 0.779 ± 0.2; in test [7] (5 nM), 0.794 ± 0.077; in test [7] (10 nM) it was 0.774 ± 0.13; in test [7] (50 nM) it was 0.774 ± 0.11. The surviving fraction in [7] (100 nM) came to 0.749 ± 0.065; in [7] (500 nM), 0.19 ± 0.012; in [7] (1000 nM), 0.78 ± 0.031; in test [8] (0.5 nM), 0.812 ± 0.075; in [8] (1 nM), 0.754 ± 0.031; in test [8] (5 nM), 0.701 ± 0.11. Also, the surviving fraction in test [8] (10 nM) was 0.711 ± 0.14; in test [8] (50 nM), 0.715 ± 0.041; in [8] (100 nM), 0.756 ± 0.048; in test [8] (500 nM), 0.551 ± 0.1; in test [8] (1000 nM) it was 0.5123 ± 0.004; in test [9] (0.5 nM), 0.75 ± 0.13. Further, the surviving fraction in [9] (1 nM) was found to be 0.843 ± 0.061; in test [9] (5 nM), 0.716 ± 0.15; in test [9] (10 nM), 0.697 ± 0.029; in test [9] (50 nM), 0.701 ± 0.054; in test [9] (100 nM), 0.663 ± 0.083; in test [9] (500 nM) it was 0.697 ± 0.077. For the same test system, the surviving fraction in [9] (1000 nM) is 0.714 ± 0.095.
In the case of HS57T LUNG, the “area under dose-response curve” value in [10] is 1.13; in test [1], 3.09; in [11], 2.88; in [12] it was 2.84; in test [13], 3.1; in [2] it was 1.27. The “area under dose-response curve” value in test [14] was found to be 2.83; in [3] it was 3.44; in test [4] it was 1.54; in [15], 2.66; in test [5], 2.04; in test [16], 1.21.
